Results reported in US20230117034A1, “PYRAZOLOTRIAZINES” (Bayer Aktiengesellschaft, priority 2019, published 2023).

What was measured:
CDK12/CycK = CDK12/CycK (Homo sapiens, UniProt Q9NYV4); experiment: CDK12/CycK high ATP kinase assay (TR-FRET, 2 mM ATP); type: biochemical; details: 2 mM ATP (high ATP); median; read-out: CDK12/CyclinK, 2 mM ATP (high ATP), IC50-[mol/l] (median)
Outline: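 Read-out is TR-FRET (Eu-anti-rabbit IgG, anti-phospho-c-Myc Ser62 antibody, streptavidin-XL665) after EDTA stop. Reaction ran 60 min at 22 °C using 1 µM biotin-peptide and high ATP (2 mM) with roughly 0.75 nM recombinant CDK12/CycK, after 15 min compound pre-binding; normalised emission ratios yield IC50.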

[1] = molecular target: T1, CDK12 (nuclear staining in CAL-120 cells) (Homo sapiens, UniProt Q9NYV4); experiment: CDK12 nuclear protein level: immunofluorescence/high content analysis (CAL-120); type: cell-based; details: for DC50: CAL-120 cells, 24 h, immunofluorescence, 50% reduction of nuclear CDK12 staining intensity, median, read-out: CDK12 degradation IF, DC50- [mol/l] (median); for (IC50 CDK12 high ATP) to (Degradation DC50 CDK12) ratio: ratio of IC50 CDK12 high ATP kinase assay to DC50 CDK12 degradation (IF, CAL-120)
T1 construct: endogenous in cells; host or cells: CAL-120 human breast cancer cells (DSMZ ACC 459)
T1 sequence (Q9NYV4 whole entry): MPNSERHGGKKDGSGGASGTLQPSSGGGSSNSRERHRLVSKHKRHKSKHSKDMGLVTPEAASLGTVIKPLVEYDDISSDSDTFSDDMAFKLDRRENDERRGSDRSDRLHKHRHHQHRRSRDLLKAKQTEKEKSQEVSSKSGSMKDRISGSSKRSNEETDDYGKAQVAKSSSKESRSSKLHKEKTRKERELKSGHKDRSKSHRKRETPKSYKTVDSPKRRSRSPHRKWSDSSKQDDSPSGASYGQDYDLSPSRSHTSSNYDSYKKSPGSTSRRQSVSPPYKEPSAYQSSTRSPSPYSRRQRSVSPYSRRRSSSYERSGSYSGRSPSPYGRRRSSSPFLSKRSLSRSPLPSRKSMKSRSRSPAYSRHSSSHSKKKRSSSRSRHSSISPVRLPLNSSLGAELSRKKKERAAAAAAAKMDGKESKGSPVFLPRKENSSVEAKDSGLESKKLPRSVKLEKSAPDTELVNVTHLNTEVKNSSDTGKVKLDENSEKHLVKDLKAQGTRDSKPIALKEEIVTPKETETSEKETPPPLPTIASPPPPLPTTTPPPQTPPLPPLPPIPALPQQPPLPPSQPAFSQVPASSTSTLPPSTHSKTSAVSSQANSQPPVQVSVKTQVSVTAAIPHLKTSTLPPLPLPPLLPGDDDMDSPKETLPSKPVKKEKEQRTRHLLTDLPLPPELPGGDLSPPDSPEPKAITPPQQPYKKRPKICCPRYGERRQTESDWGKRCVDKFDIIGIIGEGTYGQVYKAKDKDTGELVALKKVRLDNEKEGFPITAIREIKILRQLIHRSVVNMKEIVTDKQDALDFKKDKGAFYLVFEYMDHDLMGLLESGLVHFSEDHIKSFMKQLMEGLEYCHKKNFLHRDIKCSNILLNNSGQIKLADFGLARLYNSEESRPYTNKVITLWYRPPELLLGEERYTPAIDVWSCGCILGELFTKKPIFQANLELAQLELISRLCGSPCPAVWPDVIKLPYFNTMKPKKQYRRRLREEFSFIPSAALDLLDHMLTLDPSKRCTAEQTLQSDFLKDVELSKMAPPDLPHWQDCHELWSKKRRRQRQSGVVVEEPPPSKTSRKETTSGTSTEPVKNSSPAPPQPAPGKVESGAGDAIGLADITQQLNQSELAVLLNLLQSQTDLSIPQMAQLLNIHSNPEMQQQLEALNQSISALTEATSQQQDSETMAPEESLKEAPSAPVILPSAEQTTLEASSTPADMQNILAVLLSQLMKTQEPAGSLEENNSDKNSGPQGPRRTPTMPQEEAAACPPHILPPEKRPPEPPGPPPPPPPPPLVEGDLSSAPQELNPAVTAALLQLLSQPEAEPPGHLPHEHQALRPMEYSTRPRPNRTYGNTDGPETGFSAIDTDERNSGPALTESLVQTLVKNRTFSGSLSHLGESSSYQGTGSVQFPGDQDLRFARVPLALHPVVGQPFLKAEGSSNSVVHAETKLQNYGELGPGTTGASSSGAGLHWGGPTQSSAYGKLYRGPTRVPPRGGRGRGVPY
T1 sequence (O75909 whole entry partner): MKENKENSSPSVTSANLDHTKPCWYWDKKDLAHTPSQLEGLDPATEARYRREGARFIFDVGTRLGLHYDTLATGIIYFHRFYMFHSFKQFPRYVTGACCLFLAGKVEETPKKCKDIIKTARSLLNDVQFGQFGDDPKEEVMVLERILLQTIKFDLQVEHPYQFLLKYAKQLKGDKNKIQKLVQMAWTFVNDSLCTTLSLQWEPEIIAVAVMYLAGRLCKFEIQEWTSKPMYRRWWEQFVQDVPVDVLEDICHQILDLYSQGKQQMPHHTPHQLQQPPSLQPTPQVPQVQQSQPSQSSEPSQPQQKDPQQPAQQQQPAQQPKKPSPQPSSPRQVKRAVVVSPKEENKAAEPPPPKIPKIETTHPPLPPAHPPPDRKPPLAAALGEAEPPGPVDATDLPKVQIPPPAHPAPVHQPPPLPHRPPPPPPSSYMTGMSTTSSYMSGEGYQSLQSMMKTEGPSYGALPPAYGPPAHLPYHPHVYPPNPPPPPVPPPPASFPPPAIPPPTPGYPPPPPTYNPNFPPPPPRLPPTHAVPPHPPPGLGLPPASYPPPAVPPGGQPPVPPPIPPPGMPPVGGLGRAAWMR
Outline: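 DC50 is the degrader concentration that halves nuclear CDK12 immunofluorescence relative to controls, measured by high-content imaging. CAL-120 cells were exposed to compound for 24 h at 37 °C before PFA fixation, and signal was normalized to DMSO and control wells.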

Sequence of CDK12/CycK (Q9NYV4 with tags, fused parts or gaps): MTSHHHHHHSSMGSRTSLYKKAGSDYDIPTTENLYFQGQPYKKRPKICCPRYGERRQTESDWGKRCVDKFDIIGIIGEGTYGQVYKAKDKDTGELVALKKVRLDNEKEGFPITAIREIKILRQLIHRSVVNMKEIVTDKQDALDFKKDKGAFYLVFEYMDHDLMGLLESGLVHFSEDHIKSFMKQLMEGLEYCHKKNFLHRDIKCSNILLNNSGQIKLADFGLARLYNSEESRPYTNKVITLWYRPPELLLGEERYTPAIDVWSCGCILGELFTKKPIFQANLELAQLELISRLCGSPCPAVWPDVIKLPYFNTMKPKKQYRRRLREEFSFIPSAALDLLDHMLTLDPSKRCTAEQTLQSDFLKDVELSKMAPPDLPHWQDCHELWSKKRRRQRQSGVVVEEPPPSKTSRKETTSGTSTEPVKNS
Sequence of CDK12/CycK (O75909 1-300 partner limits assumed): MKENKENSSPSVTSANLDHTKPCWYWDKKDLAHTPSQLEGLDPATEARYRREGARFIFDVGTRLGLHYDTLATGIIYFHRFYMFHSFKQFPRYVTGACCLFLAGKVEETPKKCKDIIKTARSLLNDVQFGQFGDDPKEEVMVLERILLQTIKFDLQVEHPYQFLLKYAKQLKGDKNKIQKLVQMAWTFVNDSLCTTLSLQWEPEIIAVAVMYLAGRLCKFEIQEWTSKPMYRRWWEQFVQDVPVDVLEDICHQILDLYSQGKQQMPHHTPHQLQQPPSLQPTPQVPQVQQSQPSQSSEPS

With Fc1ccc2[nH]c(CNc3nc(N4CCOCC4)nc4c([C@@H]5CC5(F)F)cnn34)nc2c1 (single isomer, unassigned) [Example 315, 8-[(1R or S)-2,2-difluorocyclopropyl]-N-[(5-fluoro-1H-benzimidazol-2-yl)methyl]-2-(morpholin-4-yl)pyrazolo[1,5-a][1,3,5]triazin-4-amine] the IC50 (CDK12/CycK) was over 19700 nM, the DC50 [1] was 33.9 nM and the “(IC50 CDK12 high ATP) to (Degradation DC50 CDK12) ratio” value [1] was over 581.
CN1CCN(c2nc(NCc3nc4cc(Cl)ccc4[nH]3)n3ncc(C(F)(F)F)c3n2)CC1 [Example 298, N-[(5-chloro-1H-benzimidazol-2-yl)methyl]-2-(4-methylpiperazin-1-yl)-8-(trifluoromethyl)pyrazolo[1,5-a][1,3,5]triazin-4-amine] was tested, and the IC50 (CDK12/CycK) was 8310 nM, the DC50 [1] was 4.22 nM and the “(IC50 CDK12 high ATP) to (Degradation DC50 CDK12) ratio” value [1] was 1968.
With COc1cccc2[nH]c(CNc3nc(N4CCOCC4)nc4c(CC(F)(F)F)cnn34)nc12 [Example 277, N-[(4-methoxy-1H-benzimidazol-2-yl)methyl]-2-(morpholin-4-yl)-8-(2,2,2-trifluoroethyl)pyrazolo[1,5-a][1,3,5]triazin-4-amine] the IC50 (CDK12/CycK) was 4790 nM, the DC50 [1] was 4.48 nM and the “(IC50 CDK12 high ATP) to (Degradation DC50 CDK12) ratio” value [1] was 1071.
With CNC1CCN(c2nc(NCc3nc4ccccc4[nH]3)n3ncc(Br)c3n2)CC1 [Example 272, N-[(1H-benzimidazol-2-yl)methyl]-8-bromo-2-[4-(methylamino)piperidin-1-yl]pyrazolo[1,5-a][1,3,5]triazin-4-amine] the IC50 (CDK12/CycK) was over 20000 nM, the DC50 [1] was 7.24 nM and the “(IC50 CDK12 high ATP) to (Degradation DC50 CDK12) ratio” value [1] was over 2761.
For Fc1cccc2[nH]c(CNc3nc(N4C[C@H]5CC[C@@H](C4)N5)nc4c(C5CC5)cnn34)nc12 [Example 296, 8-cyclopropyl-2-[(1R,5S)-3,8-diazabicyclo[3.2.1]octan-3-yl]-N-[(4-fluoro-1H-benzimidazol-2-yl)methyl]pyrazolo[1,5-a][1,3,5]triazin-4-amine], the IC50 (CDK12/CycK) was 2480 nM, the DC50 [1] was 2.55 nM and the “(IC50 CDK12 high ATP) to (Degradation DC50 CDK12) ratio” value [1] was 971.
In the case of FC(F)(F)Cc1cnn2c(NCc3nc4cc(Cl)ccc4[nH]3)nc(N3CCOCC3)nc12 [Example 299, N-[(5-chloro-1H-benzimidazol-2-yl)methyl]-2-(morpholin-4-yl)-8-(2,2,2-trifluoroethyl)pyrazolo[1,5-a][1,3,5]triazin-4-amine], the IC50 (CDK12/CycK) is reported as 6390 nM, the DC50 [1] is reported as 7.77 nM and the “(IC50 CDK12 high ATP) to (Degradation DC50 CDK12) ratio” value [1] is reported as 822.
For CN(CC1CC1)c1nc(NCc2nc3ccccc3[nH]2)n2ncc(Br)c2n1 [Example 287, N^4-[(1H-benzimidazol-2-yl)methyl]-8-bromo-N^2-(cyclopropylmethyl)-N^2-methylpyrazolo[1,5-a][1,3,5]triazine-2,4-diamine], the IC50 (CDK12/CycK) was 10700 nM, the DC50 [1] was 101 nM and the “(IC50 CDK12 high ATP) to (Degradation DC50 CDK12) ratio” value [1] was 106.
CC1CN(C)CCN1c1nc(NCc2nc3ccccc3[nH]2)n2ncc(Br)c2n1 (single isomer, unassigned; enantiomer 2) [Example 261, N-(1H-benzimidazol-2-ylmethyl)-8-bromo-2-[(2R or S)-2,4-dimethylpiperazin-1-yl]pyrazolo[1,5-a][1,3,5]triazin-4-amine (Enantiomer 2)] was tested, and the IC50 (CDK12/CycK) was over 18700 nM, the DC50 [1] was 19.9 nM and the “(IC50 CDK12 high ATP) to (Degradation DC50 CDK12) ratio” value [1] was over 942.
CN1CCN(c2nc(NCc3nc4ccccc4[nH]3)n3ncc(Br)c3n2)C(CO)C1 (single isomer, unassigned) [Example 280, [(2R or S)-1-(4-{[(1H-benzimidazol-2-yl)methyl]amino}-8-bromopyrazolo[1,5-a][1,3,5]triazin-2-yl)-4-methylpiperazin-2-yl]methanol] was tested, and the IC50 (CDK12/CycK) was 14500 nM, the DC50 [1] was 21.4 nM and the “(IC50 CDK12 high ATP) to (Degradation DC50 CDK12) ratio” value [1] was 678.
With NC1CCN(c2nc(NCc3nc4ccccc4[nH]3)n3ncc(Br)c3n2)CC1 [Example 256, 2-(4-aminopiperidin-1-yl)-N-[(1H-benzimidazol-2-yl)methyl]-8-bromopyrazolo[1,5-a][1,3,5]triazin-4-amine] the IC50 (CDK12/CycK) was over 20000 nM, the DC50 [1] was 3.53 nM and the “(IC50 CDK12 high ATP) to (Degradation DC50 CDK12) ratio” value [1] was over 5662.
With CN(CC(C)(C)O)c1nc(NCc2nc3c(F)cccc3[nH]2)n2ncc(C3CC3)c2n1 [Example 295, 1-[(8-cyclopropyl-4-{[(4-fluoro-1H-benzimidazol-2-yl)methyl]amino}pyrazolo[1,5-a][1,3,5]triazin-2-yl)(methyl)amino]-2-methylpropan-2-ol] the IC50 (CDK12/CycK) was 829 nM, the DC50 [1] was 3.52 nM and the “(IC50 CDK12 high ATP) to (Degradation DC50 CDK12) ratio” value [1] was 235.
For Brc1cnn2c(NCc3nc4ccccc4[nH]3)nc(N3C[C@H]4CC[C@@H]3CN4)nc12 (single isomer, unassigned) [Example 316, N-[(1H-benzimidazol-2-yl)methyl]-8-bromo-2-{[1R or S-(1R*4R*)]-2,5-diazabicyclo[2.2.2]octan-2-yl}pyrazolo[1,5-a][1,3,5]triazin-4-amine], the IC50 (CDK12/CycK) was 2920 nM, the DC50 [1] was 5.62 nM and the “(IC50 CDK12 high ATP) to (Degradation DC50 CDK12) ratio” value [1] was 519.
For N[C@@H]1[C@@H]2C[C@H]1CN(c1nc(NCc3nc4ccccc4[nH]3)n3ncc(Br)c3n1)C2 [Example 289, 2-[(1R,5S,6s)-6-amino-3-azabicyclo[3.1.1]heptan-3-yl]-N-[(1H-benzimidazol-2-yl)methyl]-8-bromopyrazolo[1,5-a][1,3,5]triazin-4-amine], the IC50 (CDK12/CycK) was 7000 nM, the DC50 [1] was 3.13 nM and the “(IC50 CDK12 high ATP) to (Degradation DC50 CDK12) ratio” value [1] was 2240.
OCC1CN(c2nc(NCc3nc4ccccc4[nH]3)n3ncc(Br)c3n2)C1 [Example 304, [1-(4-{[(1H-benzimidazol-2-yl)methyl]amino}-8-bromopyrazolo[1,5-a][1,3,5]triazin-2-yl)azetidin-3-yl]methanol] was tested, and the IC50 (CDK12/CycK) was 12500 nM, the DC50 [1] was 74.6 nM and the “(IC50 CDK12 high ATP) to (Degradation DC50 CDK12) ratio” value [1] was 167.
With Brc1cnn2c(NCc3nc4ccccc4[nH]3)nc(N3CC4CCNC4C3)nc12 (centres unmarked) [Example 271, 2-(2,3,3a,4,6,6a-hexahydro-1H-pyrrolo[2,3-c]pyrrol-5-yl)-N-(1H-benzimidazol-2-ylmethyl)-8-bromo-pyrazolo[1,5-a][1,3,5]triazin-4-amine] the IC50 (CDK12/CycK) was over 20000 nM, the DC50 [1] was 18.3 nM and the “(IC50 CDK12 high ATP) to (Degradation DC50 CDK12) ratio” value [1] was over 1094.
With N[C@H]1CN(c2nc(NCc3nc4ccccc4[nH]3)n3ncc(Br)c3n2)CC12CC2 [Example 259, 2-[(7R)-7-amino-5-azaspiro[2.4]heptan-5-yl]-N-[(1H-benzimidazol-2-yl)methyl]-8-bromopyrazolo[1,5-a][1,3,5]triazin-4-amine] the IC50 (CDK12/CycK) was 2590 nM, the DC50 [1] was 7.16 nM and the “(IC50 CDK12 high ATP) to (Degradation DC50 CDK12) ratio” value [1] was 362.
In the case of FC(F)(F)Cc1cnn2c(NCc3nc4cc(Cl)c(Cl)cc4[nH]3)nc(N3CCOCC3)nc12 [Example 302, N-[(5,6-dichloro-1H-benzimidazol-2-yl)methyl]-2-(morpholin-4-yl)-8-(2,2,2-trifluoroethyl)pyrazolo[1,5-a][1,3,5]triazin-4-amine], the IC50 (CDK12/CycK) is reported as 5960 nM and the “(IC50 CDK12 high ATP) to (Degradation DC50 CDK12) ratio” value [1] is reported as 557.
In the case of C[C@@]1(O)CCN(c2nc(NCc3nc4ccccc4[nH]3)n3ncc(Br)c3n2)C1 (single isomer, unassigned) [Example 281, (3R or S)-1-(4-{[(1H-benzimidazol-2-yl)methyl]amino}-8-bromopyrazolo[1,5-a][1,3,5]triazin-2-yl)-3-methylpyrrolidin-3-ol], the IC50 (CDK12/CycK) is reported as over 16900 nM, the DC50 [1] is reported as 40.3 nM and the “(IC50 CDK12 high ATP) to (Degradation DC50 CDK12) ratio” value [1] is reported as over 419.
Fc1ccc2[nH]c(CNc3nc(N4CCOCC4)nc4c(CC(F)(F)F)cnn34)nc2c1 [Example 308, N-[(5-fluoro-1H-benzimidazol-2-yl)methyl]-2-(morpholin-4-yl)-8-(2,2,2-trifluoroethyl)pyrazolo[1,5-a][1,3,5]triazin-4-amine] was tested, and the IC50 (CDK12/CycK) was 6400 nM, the DC50 [1] was 4.93 nM and the “(IC50 CDK12 high ATP) to (Degradation DC50 CDK12) ratio” value [1] was 1297.
In the case of Fc1ccc2[nH]c(CNc3nc(N4CC5CCC(C4)N5)nc4c(C(F)(F)F)cnn34)nc2c1F [Example 310, 2-(3,8-diazabicyclo[3.2.1]octan-3-yl)-N-[(4,5-difluoro-1H-benzimidazol-2-yl)methyl]-8-(trifluoromethyl)pyrazolo[1,5-a][1,3,5]triazin-4-amine], the IC50 (CDK12/CycK) is reported as 1290 nM, the DC50 [1] is reported as 17.3 nM and the “(IC50 CDK12 high ATP) to (Degradation DC50 CDK12) ratio” value [1] is reported as 75.
For FC1(F)CC1c1cnn2c(NCc3nc4ccccc4[nH]3)nc(N3CCOCC3)nc12 (centres unmarked) [Example 279, N-[(1H-benzimidazol-2-yl)methyl]-8-(2,2-difluorocyclopropyl)-2-(morpholin-4-yl)pyrazolo[1,5-a][1,3,5]triazin-4-amine], the IC50 (CDK12/CycK) was 14000 nM, the DC50 [1] was 4.72 nM and the “(IC50 CDK12 high ATP) to (Degradation DC50 CDK12) ratio” value [1] was 2961.
In the case of CN1CCN(c2nc(NCc3nc4cc(F)c(Cl)cc4[nH]3)n3ncc(C4CC4)c3n2)CC1 [Example 309, N-[(6-chloro-5-fluoro-1H-benzimidazol-2-yl)methyl]-8-cyclopropyl-2-(4-methylpiperazin-1-yl)pyrazolo[1,5-a][1,3,5]triazin-4-amine], the IC50 (CDK12/CycK) is reported as over 20000 nM, the DC50 [1] is reported as 8.53 nM and the “(IC50 CDK12 high ATP) to (Degradation DC50 CDK12) ratio” value [1] is reported as over 2346.
For Brc1cnn2c(NCc3nc4ccccc4[nH]3)nc(N3C[C@H]4CN[C@H]4C3)nc12.O=C(O)C(F)(F)F [Example 255, trifluoroacetic acid-N-[(1H-benzimidazol-2-yl)methyl]-8-bromo-2-[(1R,5R)-3,6-diazabicyclo[3.2.0]heptan-3-yl]pyrazolo[1,5-a][1,3,5]triazin-4-amine (1/1)], the IC50 (CDK12/CycK) was over 20000 nM, the DC50 [1] was 19.2 nM and the “(IC50 CDK12 high ATP) to (Degradation DC50 CDK12) ratio” value [1] was over 1044.
